Laboratory results taken from publication PMC6010098, “Synthesis, antitumour and antioxidant activities of novel α,β-unsaturated ketones and related heterocyclic analogues: EGFR inhibition and molecular modelling study” (Journal of Enzyme Inhibition and Medicinal Chemistry, 2018).

How the values were obtained:
HepG2 cells = assay: MTT antitumour assay, HepG2; assay type: cell-based; settings: human hepato-cellular carcinoma cell line, mean ± SD, n = 3
Protocol: (§1) The evaluation of the antitumour activity was performed using tetrazolium salt MTT (3-(4,5-dimethyl-2-thiazolyl)-2,5-diphenyl-2H-tetrazolium bromide) assay as reported[62]^,[63].
(§2) The designed compounds were evaluated for their in vitro antitumour effects via the standard 3-(4,5-dimethylthiazol-2-yl)-2,5-diphenyltetrazolium bromide (MTT) method against a panel of four human tumour cell lines; namely, hepatocellular carcinoma cell line (HepG2), breast cancer cell line (MCF-7), human cervical cancer cell line (HeLa), and prostate cancer cell line (PC-3)[62]^,[63]^,[72]. The antitumour activities of the designed compounds 4–12, along with that of the reference drugs 5-FU and afatinib are shown in Table 1.

MCF-7 cells = assay: MTT antitumour assay, MCF-7; assay type: cell-based; settings: MCF7, human breast adenocarcinoma cell line, mean ± SD, n = 3
Protocol: as §1, §2

HeLa cells = assay: MTT antitumour assay, HeLa; assay type: cell-based; settings: human cervical epithelioid carcinoma cell line, mean ± SD, n = 3
Protocol: as §1
as §2, with “(PC-3)[62]^,[63]^,[72].” for “(PC-3)[62]^,[63]^,[72]. The antitumour activities of the designed compounds 4–12, along with that of the reference drugs 5-FU and afatinib are shown in Table 1.”

PC-3 cells = assay: MTT antitumour assay, PC-3; assay type: cell-based; settings: PC-3; MTT; human prostate cancer cell line; mean ± SD, n = 3
Protocol: as §1, §2

[1] = ABTS radical cation scavenging (antioxidant) assay; settings: 20 µl of 1 mg/ml test sample (L-ascorbic acid 20 µl, 2 mM)
Protocol: The absorbance (Acontrol) of a green-blue solution (ABTS^+ radical solution) resulted from a mixture of ABTS and manganese dioxide (MnO2) and was recorded at λmax 734 nm, according to the reported procedure[64]^,[65]. The absorbance (Atest) was measured upon the addition of 20 µl of 1 mg/ml solution of the test sample in spectroscopic grade methanol/phosphate buffer (1:1 v/v) to the ABTS solution. The decrease in absorbance is expressed as % inhibition, which can be calculated from the following equation: % inhibition = Acontrol-Atest/Acontrol×100.
L-Ascorbic acid 20 µl (2 mM) solution was used as standard antioxidant (positive control). A blank sample was run using only methanol/phosphate buffer (1:1), while the negative control was run with ABTS and the methanol/phosphate buffer.
The assay is based on measuring the ability of the tested compounds to scavenge the long-life radical cation of ABTS[22]^,[43]^,[64]^,[65].

Question: Which results are given for `Cc1ccc(C2=NNC(c3ccc(OC4CCCC4)cc3)C2)cc1` (centres unmarked) [8a, 5-(4-(Cyclopentyloxy)phenyl)-3-(4-methylphenyl)-4,5-dihydro-1H-pyrazole]?
Answer: IC50 (HepG2 cells): 18.9 ± 1.35 µM; IC50 (MCF-7 cells): 29.3 ± 1.97 µM; IC50 (HeLa cells): 16.2 ± 1.36 µM; IC50 (PC-3 cells): 12.7 ± 1.13 µM; %Inhibition of the ABTS radical cation [1]: 53.0%; melting point: 145 to 146 °C

Question: For `O=C(O)c1cc(C=Cc2ccc(OC3CCCC3)cc2)nc2ccc(F)cc12` [12b, 2-(4-(Cyclopentyloxy)styryl)-6-fluoroquinoline-4-carboxylicacid], which IC50 (HepG2 cells) is on record?
Answer: Its IC50 is 30.8 ± 2.07 µM.

Question: What about the IC50 (MCF-7 cells) of the same compound?
Answer: Its IC50 is 48.1 ± 3.25 µM.

Question: What about the IC50 (HeLa cells) of the same compound?
Answer: Its IC50 is 66.8 ± 4.07 µM.

Question: What about the IC50 (PC-3 cells) of the same compound?
Answer: Its IC50 is 69.4 ± 4.32 µM.

Question: What about the “%Inhibition of the ABTS radical cation” value [1] of the same compound?
Answer: The value was 50.0%.

Question: What about the melting point of the same compound?
Answer: Its melting point is greater than 300 °C.

Question: Which IC50 (HepG2 cells) does the source give for `Cc1ccc(C2=NOC(c3ccc(OC4CCCC4)cc3)C2)cc1` (centres unmarked) [compound 9, 5-(4-(cyclopentyloxy)phenyl)-3-(4-methylphenyl)-4,5-dihydroisoxazole] here?
Answer: Its IC50 is 62.3 ± 4.1 µM.

Question: What about the IC50 (MCF-7 cells) of the same compound?
Answer: The IC50 was 58.4 ± 4.5 µM.

Question: And the IC50 (HeLa cells)?
Answer: Its IC50 is 46.2 ± 3.3 µM.

Question: What about the IC50 (PC-3 cells) of the same compound?
Answer: Its IC50 is 50.1 ± 3.55 µM.

Question: What about the “%Inhibition of the ABTS radical cation” value [1] of the same compound?
Answer: Its value is 60.0%.

Question: And the melting point?
Answer: The melting point was 120 to 122 °C.

Question: What does the source list for `Cc1ccc(-c2cc(-c3ccc(OC4CCCC4)cc3)c(C#N)c(N)n2)cc1` [compound 11, 2-amino-4-(4-(cyclopentyloxy)phenyl)-6-(4-methylphenyl)nicotinonitrile]?
Answer: IC50 (HepG2 cells): 92.9 ± 5.82 µM; IC50 (MCF-7 cells): 97.3 ± 5.51 µM; IC50 (HeLa cells): 62.4 ± 3.8 µM; IC50 (PC-3 cells): 87.7 ± 5.41 µM; melting point: 272 to 273 °C
